Measurements published in patent publication US10968203B2, “Pyrimidinyl-pyridyloxy-naphthyl compounds and methods of treating IRE1-related diseases and disorders” (Genentech, Inc., priority 2017, dated 2021).
Read-outs that look alike come from different tables or passages of the source.

Tested on: XBP1s-luc 293 LUC
Assay: cellular PD assay, XBP1s-LUC reporter (Example 903)
Format: cell-based
Conditions: read-out: XBP1s-luc 293 LUC (IC50)
Outline: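 A luciferase fusion, in frame and expressed only when the XBP1 transcript is spliced, served as the readout of cellular IRE1α activity in an XBP1-Luc reporter line.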

Row | Structure (SMILES) | IC50 (Table 1) [µM] | IC50 [µM]
1 | Cc1ccc2c(Oc3ncccc3-c3ccnc(N[C@H]4CCCNC4)n3)c(C)ccc2c1NC(=O)C1CC1 [Example 284, (S)—N-(2,6-Dimethyl-5-((3-(2-(piperidin-3-ylamino)pyrimidin-4-yl)pyridin-2-yl)oxy)Naphthalen-1-yl)cyclopropanecarboxamide] | 0.0982 | –
2 | CCCS(=O)(=O)Nc1c(C)ccc2c(Oc3ncccc3-c3ccnc(N[C@H]4CCCNC4)n3)c(C)ccc12 [Example 285, (S)—N-(2,6-Dimethyl-5-((3-(2-(piperidin-3-ylamino)pyrimidin-4-yl)pyridin-2-yl)oxy)Naphthalen-1-yl)propane-1-sulfonamide] | 0.071 | –
3 | Cc1ccc2c(NC(=O)CC3CC4CCC3C4)cccc2c1Oc1ncccc1-c1ccnc(N[C@H]2CCCNC2)n1 (stereo partly drawn) [Example 286, 2-(Bicyclo[2.2.1]heptan-2-yl)-N-(6-methyl-5-((3-(2-((S)-piperidin-3-ylamino)pyrimidin-4-yl)pyridin-2-yl)oxy)naphthalen-1-yl)acetamide] | 0.174 | –
4 | CCc1cnn(-c2cccc3c(Oc4ncccc4-c4ccnc(N[C@H]5CCCNC5)n4)c(C)ccc23)c1 [Example 290, (S)-4-(2-((5-(4-Ethyl-1H-pyrazol-1-yl)-2-methylnaphthalen-1-yl)oxy)pyridin-3-yl)-N-(piperidin-3-yl)pyrimidin-2-amine] | 0.409 | –
5 | Cc1ccc2c(NC(=O)[C@@H]3C[C@H]3C(F)F)cccc2c1Oc1ncccc1-c1ccnc(N[C@H]2CCCNC2)n1 [Example 293, (1R,2R)-2-(Difluoromethyl)-N-(6-methyl-5-((3-(2-(((S)-piperidin-3-yl)amino)pyrimidin-4-yl)pyridin-2-yl)oxy)naphthalen-1-yl)cyclopropane-1-carboxamide] | 0.0905 | –
6 | Cc1nc(CNc2cccc3c(Oc4ncccc4-c4ccnc(N[C@H]5CCCNC5)n4)c(C)ccc23)c(C)s1 [Example 294, (S)-4-(2-((5-(((2,5-Dimethylthiazol-4-yl)methyl)amino)-2-methylnaphthalen-1-yl)oxy)pyridin-3-yl)-N-(piperidin-3-yl)pyrimidin-2-amine] | 0.241 | –
7 | Cc1ccc2c(NCc3ccccn3)c(F)ccc2c1Oc1ncccc1-c1ccnc(N[C@H]2CCCNC2)n1 [Example 296, (S)-4-(2-((6-Fluoro-2-methyl-5-((pyridin-2-ylmethyl)amino)naphthalen-1-yl)oxy)pyridin-3-yl)-N-(piperidin-3-yl)pyrimidin-2-amine] | 0.22 | –
8 | Cc1ccc2c(N3CCC4(CC4)C3=O)cccc2c1Oc1ncccc1-c1ccnc(N[C@H]2CCCNC2)n1 [Example 297, (S)-5-(6-Methyl-5-((3-(2-(piperidin-3-ylamino)pyrimidin-4-yl)pyridin-2-yl)oxy)naphthalen-1-yl)-5-azaspiro[2.4]heptan-4-one] | 0.173 | –
9 | Cc1ccc2c(NC[C@@H](O)C(F)(F)F)cccc2c1Oc1ncccc1-c1ccnc(N[C@H]2CCCNC2)n1 [Example 298, (R)-1,1,1-Trifluoro-3-((6-methyl-5-((3-(2-((S)-piperidin-3-ylamino)pyrimidin-4-yl)pyridin-2-yl)oxy)naphthalen-1-yl)amino)propan-2-ol] | 0.0672 | –
10 | Cc1ccc2c(NC[C@H](O)C(F)(F)F)cccc2c1Oc1ncccc1-c1ccnc(N[C@H]2CCCNC2)n1 [Example 299] | 0.00858 | –
11 | Cc1ccc2c(NC[C@@H](C)O)cccc2c1Oc1ncccc1-c1ccnc(N[C@H]2CCCNC2)n1 [Example 300, (R)-1-((6-Methyl-5-((3-(2-((S)-piperidin-3-ylamino)pyrimidin-4-yl)pyridin-2-yl)oxy)naphthalen-1-yl)amino)propan-2-ol] | 0.0554 | –
12 | Cc1ccc2c(NC[C@H](C)O)cccc2c1Oc1ncccc1-c1ccnc(N[C@H]2CCCNC2)n1 [Example 301, (S)-1-((6-Methyl-5-((3-(2-((S)-piperidin-3-ylamino)pyrimidin-4-yl)pyridin-2-yl)oxy)naphthalen-1-yl)amino)propan-2-ol] | 0.424 | –
13 | Cc1ccc2c(NC(=O)CC(C)(C)C)cccc2c1Oc1ncccc1-c1ccnc(N[C@@H]2CNC[C@H](C)C2)n1 [Example 302, 3,3-Dimethyl-N-(6-methyl-5-((3-(2-(((3S,5R)-5-methylpiperidin-3-yl)amino)pyrimidin-4-yl)pyridin-2-yl)oxy)naphthalen-1-yl)butanamide] | 0.0935 | –
14 | Cc1ccc2c(NC(=O)CC3CCCCC3)cccc2c1Oc1ncccc1-c1ccnc(N[C@@H]2CNC[C@H](C)C2)n1 [Example 303, 2-Cyclohexyl-N-(6-methyl-5-((3-(2-(((3S,5R)-5-methylpiperidin-3-yl)amino)pyrimidin-4-yl)pyridin-2-yl)oxy)naphthalen-1-yl)acetamide] | 0.126 | –
15 | Cc1ccc2c(NS(=O)(=O)CC(C)C)cccc2c1Oc1ncccc1-c1ccnc(N[C@@H]2CNC[C@H](C)C2)n1 [Example 304, 2-Methyl-N-(6-methyl-5-((3-(2-(((3S,5R)-5-methylpiperidin-3-yl)amino)pyrimidin-4-yl)pyridin-2-yl)oxy)naphthalen-1-yl)propane-1-sulfonamide] | 0.105 | –
16 | CCCS(=O)(=O)Nc1cccc2c(Oc3ncccc3-c3ccnc(N[C@H]4CCCNC4)n3)c(F)ccc12 [Example 305, (S)—N-(6-Fluoro-5-((3-(2-(piperidin-3-ylamino)pyrimidin-4-yl)pyridin-2-yl)oxy)naphthalen-1-yl)propane-1-sulfonamide] | 0.481 | –
17 | Cc1ccc2c(NCC(C)(C)O)cccc2c1Oc1ncccc1-c1ccnc(N[C@H]2CCCNC2)n1 [Example 306, (S)-2-Methyl-1-((6-methyl-5-((3-(2-(piperidin-3-ylamino)pyrimidin-4-yl)pyridin-2-yl)oxy)naphthalen-1-yl)amino)propan-2-ol] | 0.24 | –
18 | Cc1nc(CNc2c(F)ccc3c(Oc4ncccc4-c4ccnc(N[C@@H]5CNC[C@H](C)C5)n4)c(C)ccc23)cs1 [Example 307, 4-(2-((6-Fluoro-2-methyl-5-(((2-methylthiazol-4-yl)methyl)amino)naphthalen-1-yl)oxy)pyridin-3-yl)-N-((3S,5R)-5-methylpiperidin-3-yl)pyrimidin-2-amine] | 0.36 | –
19 | Cc1ccc2c(N3CCC4(CCCCC4)C3=O)cccc2c1Oc1ncccc1-c1ccnc(N[C@H]2CCCNC2)n1 [Example 308, (S)-2-(6-Methyl-5-((3-(2-(piperidin-3-ylamino)pyrimidin-4-yl)pyridin-2-yl)oxy)naphthalen-1-yl)-2-azaspiro[4.5]decan-1-one] | 0.211 | –
20 | Cc1ccc2c(NC[C@H](O)c3ccccc3)cccc2c1Oc1ncccc1-c1ccnc(N[C@H]2CCCNC2)n1 [Example 309, (R)-2-((6-Methyl-5-((3-(2-((S)-piperidin-3-ylamino)pyrimidin-4-yl)pyridin-2-yl)oxy)naphthalen-1-yl)amino)-1-phenylethanol] | 0.433 | –
21 | Cc1ccc2c(NC(=O)C3CC3)c(F)ccc2c1Oc1ncccc1-c1ccnc(N[C@@H]2CNC[C@H](C)C2)n1 [Example 310, N-(2-Fluoro-6-methyl-5-((3-(2-(((3S,5R)-5-methylpiperidin-3-yl)amino)pyrimidin-4-yl)pyridin-2-yl)oxy)naphthalen-1-yl)cyclopropanecarboxamide] | 0.135 | –
22 | Cc1ccc2c(NS(=O)(=O)CCC(F)(F)F)c(F)ccc2c1Oc1ncccc1-c1ccnc(N[C@@H]2CNC[C@H](C)C2)n1 [Example 311, 3,3,3-Trifluoro-N-(2-fluoro-6-methyl-5-((3-(2-(((3S,5R)-5-methylpiperidin-3-yl)amino)pyrimidin-4-yl)pyridin-2-yl)oxy)naphthalen-1-yl)propane-1-sulfonamide] | 0.00616 | –
23 | CC[C@@H](O)CNc1cccc2c(Oc3ncccc3-c3ccnc(N[C@H]4CCCNC4)n3)c(C)ccc12 [Example 312, (R)-1-((6-Methyl-5-((3-(2-((S)-piperidin-3-ylamino)pyrimidin-4-yl)pyridin-2-yl)oxy)naphthalen-1-yl)amino)butan-2-ol] | 0.0274 | –
24 | CC[C@H](O)CNc1cccc2c(Oc3ncccc3-c3ccnc(N[C@H]4CCCNC4)n3)c(C)ccc12 [Example 313, (S)-1-((6-Methyl-5-((3-(2-((S)-piperidin-3-ylamino)pyrimidin-4-yl)pyridin-2-yl)oxy)naphthalen-1-yl)amino)butan-2-ol] | 0.148 | –
25 | COC(=O)CNc1cccc2c(Oc3ncccc3-c3ccnc(N[C@H]4CCCNC4)n3)c(C)ccc12 [Example 314, (S)-Methyl 2-((6-methyl-5-((3-(2-(piperidin-3-ylamino)pyrimidin-4-yl)pyridin-2-yl)oxy)naphthalen-1-yl)amino)acetate] | 0.208 | –
26 | Cc1ccc2c(N3CC[C@@H](CF)C3=O)cccc2c1Oc1ncccc1-c1ccnc(N[C@H]2CCCNC2)n1 [Example 315, (R)-3-(Fluoromethyl)-1-(6-methyl-5-((3-(2-(((S)-piperidin-3-yl)amino)pyrimidin-4-yl)pyridin-2-yl)oxy)naphthalen-1-yl)pyrrolidin-2-one] | 0.471 | –
27 | Cc1ccc2c(N3CC[C@H](CF)C3=O)cccc2c1Oc1ncccc1-c1ccnc(N[C@H]2CCCNC2)n1 [Example 316, (S)-3-(Fluoromethyl)-1-(6-methyl-5-((3-(2-(((S)-piperidin-3-yl)amino)pyrimidin-4-yl)pyridin-2-yl)oxy)naphthalen-1-yl)pyrrolidin-2-one] | 0.213 | –
28 | Cc1ccc2c(NS(=O)(=O)C3CCCCC3)c(F)ccc2c1Oc1ncccc1-c1ccnc(N[C@@H]2CNC[C@H](C)C2)n1 [Example 317, N-(2-Fluoro-6-methyl-5-((3-(2-(((3S,5R)-5-methylpiperidin-3-yl)amino)pyrimidin-4-yl)pyridin-2-yl)oxy)naphthalen-1-yl)cyclohexanesulfonamide] | 0.0176 | –
29 | Cc1ccc2c(Oc3ncccc3-c3ccnc(N[C@H]4CCCNC4)n3)c(C)ccc2c1NS(=O)(=O)CCC(F)(F)F [Example 318, (S)—N-(2,6-Dimethyl-5-((3-(2-(piperidin-3-ylamino)pyrimidin-4-yl)pyridin-2-yl)oxy)naphthalen-1-yl)-3,3,3-trifluoropropane-1-sulfonamide] | 0.0417 | –
30 | Cc1ccc2c(Oc3ncccc3-c3ccnc(N[C@H]4CCCNC4)n3)c(C)ccc2c1NC[C@H](O)C(F)(F)F [Example 319, (S)-3-((2,6-Dimethyl-5-((3-(2-((S)-piperidin-3-ylamino)pyrimidin-4-yl)pyridin-2-yl)oxy)naphthalen-1-yl)amino)-1,1,1-trifluoropropan-2-ol] | – | 0.0482
